Data reported in the supplement of paper PMC4862054.

Key:
Conditions in all cases: 72 h
[1] = tested on: CAL-148
Procedure: (§1)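 Drug sensitivity and resistance testing (DSRT) of breast cancer cell lines in 384-well plates, 5 concentrations in 10-fold dilutions over a compound-specific 10,000-fold range. After 72 h, cytotoxicity was read by CellTox Green fluorescence and viability by CellTiter-Glo luminescence (multiplexed), normalised to DMSO and benzethonium chloride controls. EC50 is the inflection point of the fitted dose-response curve (bottom asymptote free, so it can be relative for partial curves) and is censored at the highest tested concentration. Rows with DSS 0 (no meaningful response) were excluded.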

[2] = tested on: CAL-51
Procedure: as §1

[3] = tested on: HCC1937
How it was run: (§2)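 Per-plate normalisation used 0.1 % DMSO and a positive kill control. Breast cancer cell lines (20 µl suspension) were seeded into 384-well plates containing compound at 5 concentrations in 10-fold steps across a compound-specific 10,000-fold range, incubated for 72 h, and read first for CellTox Green fluorescence (485/520 nm), then for CellTiter-Glo luminescence. EC50 was fitted from the dose-response curves and censored at the top concentration.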

[4] = tested on: SK-BR-3
How it was run: as §2

[5] = tested on: CAL-148; remark: listed apart in the source
How it was run: as §2

[6] = tested on: BT-549
How it was run: as §2

[7] = tested on: MDA-MB-436
How it was run: as §2

[8] = tested on: DU-4475
How it was run: as §2

[9] = tested on: HCC1599
How it was run: as §2

[10] = tested on: CAL-51; remark: listed apart in the source
How it was run: as §2

[11] = tested on: Hs578T
How it was run: as §2

[12] = tested on: HCC1143
How it was run: as §2

[13] = tested on: HCC1937; remark: listed apart in the source
How it was run: (§3)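 To measure viability, fluorescence at 560/590 nm was read after 2.5 µl CellTiter-Blue had been added for 2 h at 37 °C. Cells from breast cancer lines had been seeded in 20 µl suspension onto 384-well plates pre-loaded with compound dissolved in 5 µl medium and kept for 72 h. EC50 comes from a fitted percent-inhibition dose-response curve censored at the highest concentration, after per-plate normalisation to vehicle and a positive kill control, Z'-factor checks, and removal of rows with zero drug sensitivity score.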

[14] = tested on: MDA-MB-231
How it was run: as §3

[15] = tested on: MDA-MB-468
How it was run: as §3

[16] = tested on: Hs578T; remark: listed apart in the source
How it was run: as §3

[17] = tested on: HCC1143; remark: listed apart in the source
How it was run: as §3

[18] = tested on: MFM-223
How it was run: as §3

[19] = tested on: CAL-120
How it was run: as §3

[20] = tested on: MDA-MB-453
How it was run: as §3

[21] = tested on: HDQ-P1
How it was run: as §3

[22] = tested on: CAL-85-1
How it was run: as §3

[23] = tested on: DU-4475; remark: listed apart in the source
How it was run: as §3

[24] = tested on: CAL-51; remark: listed apart in the source
How it was run: as §3

[25] = tested on: MFM-223; remark: listed apart in the source
How it was run: as §2

[26] = tested on: CAL-120; remark: listed apart in the source
How it was run: as §2

[27] = tested on: MCF-10A
How it was run: as §2

[28] = tested on: HDQ-P1; remark: listed apart in the source
Procedure: as §1

[29] = tested on: MDA-MB-231; remark: listed apart in the source
Procedure: as §1

[30] = tested on: MDA-MB-468; remark: listed apart in the source
Procedure: as §1

[31] = tested on: DU-4475; remark: listed apart in the source
Procedure: as §1

[32] = tested on: HCC1599; remark: listed apart in the source
How it was run: as §3

[33] = tested on: MDA-MB-231; remark: listed apart in the source
How it was run: as §2

Row | SMILES | EC50, CellTox Green [2] [µM] | EC50, CellTiter-Glo [4] [µM] | EC50, CellTiter-Glo [8] [µM] | EC50, CellTiter-Glo [9] [µM] | EC50, CellTiter-Glo [10] [µM] | EC50, CellTiter-Glo [11] [µM] | EC50, CellTiter-Blue viability [13] [µM] | EC50, CellTiter-Blue viability [14] [µM] | EC50, CellTiter-Blue viability [16] [µM] | EC50, CellTiter-Blue viability [17] [µM] | EC50, CellTiter-Blue viability [19] [µM] | EC50, CellTiter-Blue viability [21] [µM] | EC50, CellTiter-Blue viability [22] [µM] | EC50, CellTiter-Blue viability [23] [µM] | EC50, CellTiter-Blue viability [24] [µM] | EC50, CellTiter-Glo [26] [µM] | EC50, CellTiter-Glo [27] [µM] | further results
1 | CC(=O)N(O)CCCCCNC(=O)CCC(=O)N(O)CCCCCNC(=O)CCC(=O)N(O)CCCCCN [Deferoxamine] | 1.9 | 6.45 | 3.48 | 3.97 | 6.36 | 2.66 |  |  |  |  |  |  |  |  |  |  |  | EC50, CellTox Green [1]: 0.221 µM; EC50, CellTiter-Glo [3]: 0.696 µM; EC50, CellTiter-Glo [5]: 1.92 µM; EC50, CellTiter-Glo [6]: 0.852 µM; EC50, CellTiter-Glo [7]: 1.57 µM; EC50, CellTiter-Glo [12]: 0.832 µM
2 | COc1cc(F)c(F)c(Nc2ccc(I)cc2F)c1NS(=O)(=O)C1(C[C@H](O)CO)CC1 [RDEA119] |  |  |  |  |  |  | 1.31 | 0.0213 | 0.081 | 0.159 | 0.585 | 0.318 | 0.557 | 0.0426 | 0.196 |  |  | EC50, CellTiter-Blue viability [15]: 7.18 µM; EC50, CellTiter-Blue viability [18]: 2.87 µM; EC50, CellTiter-Blue viability [20]: 4.26 µM
3 | CC(=O)c1c(C)c2cnc(Nc3ccc(N4CCNCC4)cn3)nc2n(C2CCCC2)c1=O [Palbociclib] |  | 2.24 |  |  | > 10 | > 10 |  |  |  |  |  |  |  |  |  | 0.409 | 1.02 | EC50, CellTiter-Glo [25]: 0.0869 µM
4 | O=C1CN2Cc3c(ccc(Cl)c3Cl)N=C2N1 [Anagrelide] | 0.0306 |  |  |  | > 10 |  | 0.398 |  |  |  |  |  |  |  | 0.0775 |  |  | 
5 | Cn1cnc2c(F)c(Nc3ccc(Br)cc3Cl)c(C(=O)NOCCO)cc21 [Selumetinib] |  |  | 0.21 | 1.67 |  |  | 1.07 | 0.214 | > 10 | 0.023 | 7.5 | 0.159 | 0.563 | 0.0708 |  | 9.28 | 0.0204 | EC50, CellTox Green [28]: 0.324 µM; EC50, CellTox Green [29]: 0.724 µM; EC50, CellTox Green [30]: 2.46 µM; EC50, CellTox Green [31]: 0.172 µM; EC50, CellTiter-Blue viability [32]: 0.283 µM; EC50, CellTiter-Glo [33]: 0.313 µM
